PMC7414126 (Scientific Reports, 2020)

Tests used:
[1] = Chemical stability in binding buffer (HPLC); type: physicochemical; conditions: binding buffer pH 7.4, rt, 96 h incubation
Experimental: The chemical stability of the fluorescent H2R ligands UR-KAT478 (8), UR-KAT515 (9) and UR-KAT514 (10) was investigated at physiological pH (7.4) in binding buffer (12.5 mM MgCl2, 1 mM EDTA and 75 mM Tris/HCl, pH 7.4)^1 and in case of UR-KAT514 (10) as well in a mixture of DMSO/binding buffer 1:1. Incubation was started by addition of 27.5 μL of a 2.5 mM solution of the respective compounds in DMSO/Millipore H2O 1:1, which were freshly prepared from a 5 mM stock solution in DMSO, to 522.5 μL of binding buffer or DMSO/binding buffer 1:1 yielding a final concentration of […]. The samples were shaken for up to 4 days at 700 rpm. After indicated time periods, a 70 μL aliquot was taken and diluted with 70 µL of a mixture of MeCN, Millipore H2O and 10% aqueous TFA (60:90:1). Prior to HPLC analysis, the samples were stored at -20 °C. 50 μL of the resulting solution were analyzed by HPLC as described in the experimental section. The absorption was detected at 220 nm. The blank HPLC run was performed under identical conditions without any ligand.

hH2R [2] = molecular target: T1, hH2R (Homo sapiens, UniProt P25021); assay: Flow cytometric saturation binding assay with HEK293T-hH2R-qs5-HA cells; set-up: expressed in transfected cells; host or cells: HEK293T-hH2R-qs5-HA cells; conditions: saturation binding at HEK293T-hH2R-qs5-HA cells; mean ± SEM; read-out: pKd (Flow cytometry) (converted)
T1 sequence (P25021 whole entry): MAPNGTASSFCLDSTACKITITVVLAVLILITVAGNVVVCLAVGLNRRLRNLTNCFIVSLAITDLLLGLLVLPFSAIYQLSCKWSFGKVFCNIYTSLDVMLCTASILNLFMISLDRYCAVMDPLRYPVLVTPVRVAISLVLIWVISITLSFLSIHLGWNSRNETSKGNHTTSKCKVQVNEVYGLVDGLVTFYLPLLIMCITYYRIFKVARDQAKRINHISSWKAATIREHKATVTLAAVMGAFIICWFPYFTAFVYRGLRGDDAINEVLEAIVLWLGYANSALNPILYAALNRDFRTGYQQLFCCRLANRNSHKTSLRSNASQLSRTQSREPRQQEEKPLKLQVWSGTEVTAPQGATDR
Experimental: All flow cytometric measurements were performed with FACSCanto™II flow cytometer (Becton Dickinson, Heidelberg, Germany), equipped with an argon laser (488 nm) and a red diode laser (633 nm) (settings: FCS: A, log, 0 V; SSC: A, log, 252 V; ACP: A,H,W, log, 350 V or PerCP-Cy5-5: A,H, log 485 V or PE: A,H,W, log, 420 V) according to general protocols with minor modifications.^4,5 All measurements were performed in duplicate and recorded either in channel PerCP-Cy5 (Py-1, excitation: 488 nm), APC (BODIPY 630/650, excitation: 633 nm) or PE (TAMRA, excitation: 488 nm). Data acquisition was stopped after 10,000 gated events.
Cell culture and preparation of HEK293T-hH2R-qs5-HA cells was performed as described.^4 Briefly, cells were maintained in 25 or 175 cm^2 flasks (Sarstedt, Nümbrecht, Germany) in a humidified atmosphere (95% air, 5% CO2) at 37 °C using Dulbecco`s Modified Eagle`s Medium supplemented with 2 mM L-glutamine (Sigma-Aldrich, Munich, Germany), 10% FCS, 400 µg/mL geneticin (G418), and 100 µg/mL hygromycin B (AG Scientific, San Diego, CA, USA). On the day of the experiment, cells were detached with trypsin/EDTA (0.05%/0.2%) and centrifuged (500 x g, 5 min). The cell pellet was resuspended in Leibovitz’ L-15 medium containing 1% FCS and the cell density was adjusted to 1 x 10^6 cells/mL. The serial dilutions of the tested fluorescent ligands and famotidine (competitor, for non-specific binding) were prepared in DMSO/H2O (1:1, v/v). All incubation steps were performed in 96-well Primaria^TM plates (CORNING, NY, USA). 200 µL of the adjusted cell suspension were either added to 2 µL of DMSO/H2O (1:1, v/v, total binding) or to 2 µl of famotidine (300-fold excess over the fluorescent ligand, non-specific binding). Incubation was started by addition of 2 µL of the respective fluorescent ligand in different concentrations (100-fold concentrated with respect to the final concentration). […] Samples were transferred to 5 mL polystyrol FACS tubes (Sarstedt, Nümbrecht, Germany) and measured immediately. […]

hH2R [3] = molecular target: T1, hH2R; assay: β-Arrestin2 recruitment assay (split-luciferase complementation), HEK293T-ARRB2-H2R cells; type: cell-based; set-up: expressed in transfected cells; host or cells: HEK293T-ARRB2-H2R cell line; conditions: read-out: pKb (β-arrestin2 recruitment) (converted)

Chemical stability (decomposition) [1]: no decomposition
Kd (hH2R [2]): 74.1 nM
Kb (hH2R [3]): 16.6 nM
Compound: Cc1cc(/C=C/c2cc3c4c(c2)CCCN4CCC3)cc(C)[n+]1CCCCNc1c(NCCCOc2cccc(CN3CCCCC3)c2)c(=O)c1=O [Compound 8, (E)-1-(4-((3,4-Dioxo-2-((3-(3-(piperidin-1-ylmethyl)phenoxy)propyl)amino)cyclobut-1-en-1-yl)amino)butyl)-2,6-dimethyl-4-(2-(2,3,6,7-tetrahydro-1H,5H-pyrido[3,2,1-ij]quinolin-9-yl)vinyl)pyridin-1-ium]
